Laboratory results: patent EP4667628A1, “SYNTHETIC LETHALITY TO TREAT AUTOSOMAL DOMINANT POLYCYSTIC KIDNEY DISEASE (ADPKD)” (Albert-Ludwigs-Universität Freiburg Körperschaft des …, priority 2024, dated 2025)
Like-named read-outs stand apart in the source and are kept apart here.

What was measured:
[1] = test system: isogenic wildtype mIMCD-3 cells; experiment: Luminescence-based ATP-dependent cell viability assay (CellTiter-Glo 2.0), dose-response, isogenic wildtype counter screen; conditions: Mus musculus
Protocol: (§1) Subculturing of cells was performed twice a week in a 1:10 ratio. Cells were maintained in a humidified incubator at 37°C and 5% CO2. […] The term "wild-type" is used for mIMCD-3 cells that were not edited by CRISPR-Cas9. The original cell line obtained from ATCC was generated from inner medullary collecting ducts of a SV-40 transgenic mouse.^13
(§2) Prior to genome editing, a monoclonal starting cell line was generated by a single cell sorting step.
(§3) After 72 hours cell density was checked with an inverted microscope (Zeiss Axiovert 40CFL). Cells were washed with 10 ml phosphate buffered saline (PBS). […] 10 ml DMEM:F12 with 10% FBS and 1% penicillin/streptomycin were added, cell detachment was facilitated by pipetting up and down multiple times. […] Cell density was diluted to 400,000 cells/ml for each genotype. […] Basins of 1536 well plates were filled with 25 µl (vertical basins) or 40 µl (horizontal basins) H2O in order to prevent evaporation induced edge effects. Confluency was checked after 24 hours with an Evos M5000 imaging system (Invitrogen).
(§4) For the secondary screen and validation experiments, source plates were generated with compounds in 1:2 dilutions allowing for the generation of dose-response-curves. 30 nl of compounds per well were transferred in secondary screen and validation experiments. […] The volume of transferred DMSO was adjusted according to the transferred compound volume. […] After compound transfer, plates were centrifuged (Multifuge 3 s-r, Heraeus) for 10 seconds (1,000 rpm). […] Plates were stored in incubators at 37°C and 5% CO2 for 72 hours. A maximum of two plates was stacked in the incubator. Source plates were sealed with an Agilent Technologies Plateloc heat sealer. Prior to compound transfer source plates were centrifuged (4,200 rpm, 1 min). Sealing was removed with a Brooks XPeel device.
(§5) After 72 hours of compound incubation, plates were allowed to adapt to room temperature for 20 minutes. […] The luminescence signal was allowed to stabilize for 20 min. Luminescence was scanned with a BMG Labtech Pherastar FSX luminescence reader with a measurement interval time of 0.16 s per well. A 1536-well plate adapted aperture was used to minimize cross-talk. Data analysis was performed with GraphPad Prism (version 9). Dose- and genotype-dependent differences in viability were checked for statistical significance by performing a two-way ANOVA (α = 0.05). Difference in protein abundance analyzed by western blot were checked for statistical significance by performing a student's t-test (α = 0.05).

[2] = test system: second independent PKD1 KO clone (#2); experiment: Luminescence-based ATP-dependent cell viability assay (CellTiter-Glo 2.0), dose-response, PKD1 knockout clone #2; conditions: Mus musculus
Protocol: as §1, §2, §3, §4, §5

[3] = test system: monoclonal PKD1 KO mIMCD-3 cell line (clone #1); experiment: Luminescence-based ATP-dependent cell viability assay (CellTiter-Glo 2.0), dose-response, PKD1 knockout clone #1; design: species or system mouse; conditions: for IC50: Mus musculus; for effect sizes: further MEK-inhibitors tested, PKD1-deficient cells compared to wildtype cells
Protocol: as §1, §2, §3, §4, §5

[4] = mIMCD3, isogenic wildtype mIMCD-3 control cells, 72 hours compound incubation, read-out: IC50 wildtype
[5] = mIMCD3, mIMCD-3 PKD1 knockout clone 2, 72 hours compound incubation, IC50 = concentration that kills 50% of the cells, read-out: IC50 PKD1-/- (clone 2)
[6] = mIMCD3, mIMCD-3 PKD1 knockout clone 1, 72 hours compound incubation, IC50 = concentration that kills 50% of the cells, read-out: IC50 PKD1-/- (clone 1)
[7] = mIMCD3, 72 h, read-out: IC50 wildtype (µM)
[8] = mIMCD3, 72 h, read-out: IC50 PKD1-/- (clone 2) (µM)
[9] = mIMCD3, 72 h, read-out: IC50 PKD1-/- (clone 1) (µM)

Row | SMILES | IC50 [1, 4] [µM] | IC50 [2, 5] [µM] | IC50 [3, 6] [µM] | IC50 [1, 7] [µM] | IC50 [2, 8] [µM] | IC50 [3, 9] [µM] | effect sizes [3]
1 | N#CC(C#N)=NNc1cccc(Cl)c1 [Number 4] | 4.31 | 2.85 | 3.54 | – | – | – | –
2 | N#CC(C#N)=NNc1ccc(OC(F)(F)F)cc1 [Number 22] | 4.12 | 2.42 | 2.89 | – | – | – | –
3 | O=C(Nc1ccccc1C(=O)NCc1ccccn1)c1ccc([N+](=O)[O-])o1 [Number 8, 5-Nitro-N-{2-[(2-pyridinylmethyl)carbamoyl]phenyl}-2-furamide] | 24.5 | 19.4 | 19.4 | – | – | – | –
4 | COc1ccc(Cc2c(N)nc(-c3ccccn3)nc2N)cc1 [Number 19, 5-(4-Methoxybenzyl)-2-(2-pyridinyl)-4,6-pyrimidinediamine] | 36.5 | 24.9 | 20 | – | – | – | –
5 | Cc1c(Cl)cccc1Nc1ncnc2cc(Cl)ccc12 [Number 3, 7-Chloro-N-(3-chloro-2-methylphenyl)-4-quinazolinamine] | > 30 | 14 | > 30 | – | – | – | –
6 | CC(=O)N(C)c1ccc(Nc2nc(NC3CCC3)c3[nH]cnc3n2)cc1 [Number 18, N-(4-{[6-(Cyclobutylamino)-7H-purin-2-yl]amino}phenyl)-N-methylacetamide] | 5.93 | 2.53 | 3.07 | – | – | – | –
7 | CN(C)S(=O)(=O)c1cc(NC(=O)c2ccc([N+](=O)[O-])o2)ccc1Cl [Number 12, N-[4-Chloro-3-(dimethylsulfamoyl)phenyl]-5-nitro-2-furamide] | 11.2 | 8.51 | 7.09 | – | – | – | –
8 | O=C1C2=C(C(=O)c3ccccc31)[C@H]1Oc3ccccc3[C@H]1CO2 [Number 15, Pterocarpanquinone ((2S,10S)-3,12-dioxapentacyclo[11.8.0.02,10.04,9.015,20]henicosa-1(13),4,6,8,15,17,19-heptaene-14,21-dione)] | – | – | – | 4.45 | 2.8 | 3.54 | –
9 | CC(C)c1cc(N2CCCCC2)nc(-c2ccccn2)n1 [Number 13, 4-Piperidin-1-yl-6-propan-2-yl-2-pyridin-2-ylpyrimidine] | 28.7 | 18.7 | 6.75 | – | – | – | –
10 | O=c1c2ccccc2nc(/C=C/c2ccc([N+](=O)[O-])o2)n1-c1ccc(O)cc1 [Number 6, 3-(4-Hydroxyphenyl)-2-[(E)-2-(5-nitro-2-furyl)vinyl]-4(3H)-quinazolinone] | 4.49 | 2.98 | 3.17 | – | – | – | –
11 | Cn1c(/C=C/c2ccc([N+](=O)[O-])o2)nc2ccccc2c1=O [Number 5, 3-Methyl-2-[(E)-2-(5-nitro-2-furyl)vinyl]-4(3H)-quinazolinone] | 4.01 | 2.64 | 2.39 | – | – | – | –
12 | O=C(NOCC1CC1)c1ccc(F)c(F)c1Nc1ccc(I)cc1Cl [Number 23] | 10.3 | 7.96 | 6.21 | – | – | – | –
13 | CCOC(=O)CCNc1cc(N2CCc3ccccc3CC2)nc(-c2ccccn2)n1 [Number 17] | 7.69 | 6.08 | 3.41 | – | – | – | –
14 | c1ccc(CNc2cc(-c3ccccc3)nc(-c3ccccn3)n2)cc1 [Number 10, N-benzyl-6-phenyl-2-pyridin-2-ylpyrimidin-4-amine] | 7.73 | 6.03 | 3.24 | – | – | – | –
15 | Cc1nc(Nc2ncc(C(=O)Nc3c(C)cccc3Cl)s2)cc(N2CCN(CCO)CC2)n1 [Number 20] | 3.74 | 1.42 | 2.32 | – | – | – | –
16 | S=C(SSC(=S)N1CCOCC1)N1CCOCC1 [Number 21, Dimorpholinethiuram disulfide] | 19.8 | 3.94 | 5.3 | – | – | – | –
17 | C=CCN1C(=O)CS/C1=N\NC(=S)NC [Number 1, 1-methyl-3-[(Z)-(4-oxo-3-prop-2-enyl-1,3-thiazolidin-2-ylidene)amino]thiourea] | > 30 | 10 | 11.5 | – | – | – | –
18 | COc1cc2ncnc(Nc3cccc(Cl)c3C)c2cc1OC [Number 7, N-(3-Chloro-2-methylphenyl)-6,7-dimethoxy-4-quinazolinamine] | > 30 | 12.1 | 17 | – | – | – | –
19 | Fc1ccccc1-c1cc(NCCc2c[nH]c3ccccc23)nc(-c2ccccn2)n1 [Number 11, 6-(2-Fluorophenyl)-N-[2-(1H-indol-3-yl)ethyl]-2-(2-pyridinyl)-4-pyrimidinamine] | 9.68 | 6.43 | 3.05 | – | – | – | –
20 | COc1cc(NC(=O)c2ccc([N+](=O)[O-])o2)cc(C(F)(F)F)c1 [Number 9, N-[3-Methoxy-5-(trifluoromethyl)phenyl]-5-nitro-2-furamide] | – | 15.5 | 15 | 18.4 | – | – | –
21 | O=C(NOC[C@H](O)CO)c1ccc(F)c(F)c1Nc1ccc(I)cc1F [Number 24, Mirdametinib] | – | – | – | – | 21.8 | 80 | –
22 | COc1cc(F)c(F)c(Nc2ccc(I)cc2F)c1NS(=O)(=O)C1(C[C@H](O)CO)CC1 [Number 14, Refametinib] | – | > 30 | > 30 | > 30 | – | – | –
23 | Cn1c(=O)c(F)c(Nc2ccc(I)cc2F)c2c(=O)n(C[C@@H](O)CO)cnc21 [Number 25] | 41.9 | 9.51 | 16.9 | – | – | – | –
24 | O=C(NOC[C@H](O)CO)c1ccc(F)c(F)c1Nc1ccc(I)cc1F [Number 24, Mirdametinib, reference compound] | – | – | – | – | – | – | strong effect sizes
25 | Cn1c(=O)c(F)c(Nc2ccc(I)cc2F)c2c(=O)n(C[C@@H](O)CO)cnc21 [Number 25, Tak-733, reference compound] | – | – | – | – | – | – | strong effect sizes
